{"source": "paper doi:10.1101/2021.04.08.439011v1", "about": "(biorxiv, 2021)", "test_in_all_cases": "biochemical", "conditions_in_all_cases": "read-out: Residual activity", "key": {"STK33": {"biological_target": "STK33 (Homo sapiens, UniProt Q9BYT3)", "sequence (Q9BYT3 whole entry)": "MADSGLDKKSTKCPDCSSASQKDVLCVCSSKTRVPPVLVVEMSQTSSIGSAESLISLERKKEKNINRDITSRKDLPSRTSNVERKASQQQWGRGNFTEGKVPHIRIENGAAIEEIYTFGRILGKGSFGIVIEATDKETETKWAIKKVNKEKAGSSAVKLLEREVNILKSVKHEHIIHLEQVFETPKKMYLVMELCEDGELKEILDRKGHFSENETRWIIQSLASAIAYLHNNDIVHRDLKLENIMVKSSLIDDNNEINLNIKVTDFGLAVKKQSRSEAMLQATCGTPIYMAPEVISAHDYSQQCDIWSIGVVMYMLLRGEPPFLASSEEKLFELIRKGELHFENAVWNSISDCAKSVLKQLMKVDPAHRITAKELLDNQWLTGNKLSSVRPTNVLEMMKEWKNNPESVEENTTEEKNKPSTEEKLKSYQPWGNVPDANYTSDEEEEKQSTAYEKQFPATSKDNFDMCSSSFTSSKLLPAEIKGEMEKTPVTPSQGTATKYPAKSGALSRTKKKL"}, "DYRK1B": {"biological_target": "DYRK1B (Homo sapiens, UniProt Q9Y463)", "sequence (Q9Y463 whole entry)": "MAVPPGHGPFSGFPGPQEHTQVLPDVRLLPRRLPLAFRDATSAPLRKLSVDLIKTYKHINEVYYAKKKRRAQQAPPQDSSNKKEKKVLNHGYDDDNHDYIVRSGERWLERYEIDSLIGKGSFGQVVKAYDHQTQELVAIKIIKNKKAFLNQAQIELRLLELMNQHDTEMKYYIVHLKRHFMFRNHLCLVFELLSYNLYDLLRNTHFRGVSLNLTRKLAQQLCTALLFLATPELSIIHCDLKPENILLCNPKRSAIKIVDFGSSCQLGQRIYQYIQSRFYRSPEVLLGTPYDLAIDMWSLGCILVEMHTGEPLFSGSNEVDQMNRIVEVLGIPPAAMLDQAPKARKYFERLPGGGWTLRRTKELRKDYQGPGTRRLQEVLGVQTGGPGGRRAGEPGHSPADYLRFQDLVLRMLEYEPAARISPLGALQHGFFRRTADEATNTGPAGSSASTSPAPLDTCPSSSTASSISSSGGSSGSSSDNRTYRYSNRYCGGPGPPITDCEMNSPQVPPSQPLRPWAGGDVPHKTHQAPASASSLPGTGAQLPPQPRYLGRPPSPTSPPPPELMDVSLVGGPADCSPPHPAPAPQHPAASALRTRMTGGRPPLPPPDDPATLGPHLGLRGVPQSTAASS"}, "TTBK1": {"biological_target": "TTBK1 (Homo sapiens, UniProt Q5TCY1)", "sequence (Q5TCY1 whole entry)": "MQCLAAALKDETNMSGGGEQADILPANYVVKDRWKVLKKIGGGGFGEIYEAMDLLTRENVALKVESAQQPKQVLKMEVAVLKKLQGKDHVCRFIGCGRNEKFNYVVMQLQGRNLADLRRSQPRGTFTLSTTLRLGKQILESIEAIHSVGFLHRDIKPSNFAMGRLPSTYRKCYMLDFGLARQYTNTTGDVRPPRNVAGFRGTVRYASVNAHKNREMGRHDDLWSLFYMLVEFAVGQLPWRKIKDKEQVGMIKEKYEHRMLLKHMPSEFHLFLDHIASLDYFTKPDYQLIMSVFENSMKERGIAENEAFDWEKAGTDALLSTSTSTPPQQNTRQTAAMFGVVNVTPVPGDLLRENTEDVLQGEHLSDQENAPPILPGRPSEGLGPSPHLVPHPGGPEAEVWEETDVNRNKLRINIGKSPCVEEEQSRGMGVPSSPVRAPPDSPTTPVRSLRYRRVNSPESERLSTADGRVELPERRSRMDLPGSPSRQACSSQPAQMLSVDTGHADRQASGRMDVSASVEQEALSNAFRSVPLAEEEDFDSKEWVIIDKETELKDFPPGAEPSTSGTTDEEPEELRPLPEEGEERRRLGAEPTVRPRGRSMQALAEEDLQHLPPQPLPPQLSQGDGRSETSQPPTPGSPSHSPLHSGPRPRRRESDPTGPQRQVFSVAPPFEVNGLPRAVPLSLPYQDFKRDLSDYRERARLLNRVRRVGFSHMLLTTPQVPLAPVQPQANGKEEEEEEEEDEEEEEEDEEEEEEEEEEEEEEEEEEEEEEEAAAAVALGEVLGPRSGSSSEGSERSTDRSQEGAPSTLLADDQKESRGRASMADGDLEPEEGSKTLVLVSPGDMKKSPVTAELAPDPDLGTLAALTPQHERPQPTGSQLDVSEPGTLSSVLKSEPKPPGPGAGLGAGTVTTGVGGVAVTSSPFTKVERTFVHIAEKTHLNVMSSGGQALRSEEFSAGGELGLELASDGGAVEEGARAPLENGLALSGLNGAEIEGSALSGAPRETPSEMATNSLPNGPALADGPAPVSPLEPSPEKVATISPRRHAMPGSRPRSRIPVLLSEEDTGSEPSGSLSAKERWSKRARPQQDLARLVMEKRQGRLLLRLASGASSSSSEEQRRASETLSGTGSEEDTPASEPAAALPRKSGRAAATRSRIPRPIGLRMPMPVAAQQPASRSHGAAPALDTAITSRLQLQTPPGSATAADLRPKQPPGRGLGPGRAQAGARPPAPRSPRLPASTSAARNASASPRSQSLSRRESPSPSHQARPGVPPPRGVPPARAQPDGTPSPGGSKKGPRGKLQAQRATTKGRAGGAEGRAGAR"}, "LTK": {"biological_target": "LTK (Homo sapiens, UniProt P29376)", "sequence (P29376 whole entry)": "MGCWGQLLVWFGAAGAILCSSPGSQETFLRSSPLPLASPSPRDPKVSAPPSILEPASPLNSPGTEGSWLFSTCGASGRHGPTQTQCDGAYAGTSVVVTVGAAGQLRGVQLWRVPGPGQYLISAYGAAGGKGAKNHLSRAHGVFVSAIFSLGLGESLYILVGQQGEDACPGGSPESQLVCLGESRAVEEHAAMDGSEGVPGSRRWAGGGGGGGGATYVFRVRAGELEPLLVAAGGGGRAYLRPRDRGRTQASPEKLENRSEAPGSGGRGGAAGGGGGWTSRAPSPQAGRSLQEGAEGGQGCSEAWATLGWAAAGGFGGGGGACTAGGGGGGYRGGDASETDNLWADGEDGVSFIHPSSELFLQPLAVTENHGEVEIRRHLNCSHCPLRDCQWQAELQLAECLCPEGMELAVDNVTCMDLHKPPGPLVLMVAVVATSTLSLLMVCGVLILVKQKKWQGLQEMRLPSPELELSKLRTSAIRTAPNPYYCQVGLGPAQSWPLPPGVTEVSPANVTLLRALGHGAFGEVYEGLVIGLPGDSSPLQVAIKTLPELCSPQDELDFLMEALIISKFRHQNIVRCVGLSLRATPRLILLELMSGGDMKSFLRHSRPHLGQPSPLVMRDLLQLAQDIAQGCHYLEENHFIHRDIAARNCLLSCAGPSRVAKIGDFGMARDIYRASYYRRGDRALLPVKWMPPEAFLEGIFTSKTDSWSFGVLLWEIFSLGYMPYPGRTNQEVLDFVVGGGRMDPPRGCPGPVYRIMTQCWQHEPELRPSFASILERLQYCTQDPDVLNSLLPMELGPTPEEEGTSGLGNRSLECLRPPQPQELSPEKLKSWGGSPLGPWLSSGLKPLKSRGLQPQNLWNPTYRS"}}, "data": [{"smiles": "CNc1ncc2cc(-c3ccc(-c4ncccc4F)cc3Cl)c(=O)n(CC3OCC(N)CO3)c2n1", "note": "(stereo not shown) [compound 10, 8-(((2r,5r)-5-Amino-1,3-dioxan-2-yl)methyl)-6-(2-chloro-4-(3-fluoropyridin-2-yl)phenyl)-2-(methylamino)pyrido[2,3-d]pyrimidin-7(8H)-one]", "values": [{"measurement": "remaining activity at 1 µM", "setting": "STK33", "result": 89, "unit": "%"}, {"measurement": "remaining activity at 1 µM", "setting": "DYRK1B", "result": 98, "unit": "%"}, {"measurement": "remaining activity at 1 µM", "setting": "TTBK1", "result": 131, "unit": "%"}, {"measurement": "remaining activity at 1 µM", "setting": "LTK", "result": 105, "unit": "%"}]}]}
